Laboratory results as given in PubChem BioAssay (NCI).
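Growth conditions: 96-well plates. Treatment: test compound, 48 hours, 5 concentrations. Analysis: linear interpolation between bracketing concentrations; unreached endpoints set to highest concentration. Abbreviation: GI50, concentration required for 50% inhibition of growth. TGI: total growth inhibition.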

Key:
Assay in all cases: NCI anticancer screen, dose series, 48 h
[1] = system: T-47D breast
[2] = system: A549 NSCLC
[3] = system: CAKI-1 renal
[4] = system: PC-3 prostate
[5] = system: OVCAR-4 ovarian
[6] = system: SK-OV-3 ovarian
[7] = system: TK-10 renal
[8] = system: HOP-62 NSCLC
[9] = system: BT-549 breast
[10] = system: OVCAR-8 ovarian
[11] = system: OVCAR-5 ovarian
[12] = system: HOP-92 NSCLC
[13] = system: A498 renal
[14] = system: HT29 colon
[15] = system: SK-MEL-28 melanoma
[16] = system: RPMI-8226 leukemia
[17] = system: OVCAR-3 ovarian
[18] = system: CCRF-CEM leukemia
[19] = system: SF-295 CNS
[20] = system: SK-MEL-5 melanoma
[21] = system: KM12 colon
[22] = system: UO-31 renal
[23] = system: NCI-H460 lung
[24] = system: UACC-62 melanoma
[25] = system: MALME-3M melanoma
[26] = system: SNB-75 CNS
[27] = system: HCC-2998 colon
[28] = system: SK-MEL-2 melanoma
[29] = system: SR leukemia
[30] = system: SW-620 colon
[31] = system: HCT-116 colon
[32] = system: SNB-19 CNS
[33] = system: NCI/ADR-RES ovarian
[34] = system: HCT-15 colon
[35] = system: MDA-MB-231 breast
[36] = system: SN12C renal
[37] = system: NCI-H23 lung
[38] = system: NCI-H226 lung
[39] = system: COLO 205 colon
[40] = system: IGROV1 ovarian
[41] = system: LOX IMVI melanoma
[42] = system: MDA-MB-435
[43] = system: EKVX NSCLC
[44] = system: U251 CNS
[45] = system: HL-60(TB) leukemia
[46] = system: HS 578T breast
[47] = system: ACHN renal
[48] = system: MOLT-4 leukemia
[49] = system: MCF7 breast
[50] = system: UACC-257 melanoma
[51] = system: SF-539 CNS
[52] = system: DU-145 prostate
[53] = system: 786-0 renal
[54] = system: RXF 393 renal
[55] = system: NCI-H522 lung
[56] = system: M14 melanoma
[57] = system: SF-268 CNS
[58] = system: K-562 leukemia

`COc1cc2c3c(n(CCCNC4CCC4)c(=O)c2cc1OC)-c1cc2c(cc1C3=O)OCO2` was tested, and the GI50 [1] was 3.73 µM, the TGI [1] was 10.2 µM and the GI50 [2] was 1.3 µM. For the same compound, the TGI [2] was 3.31 µM, the GI50 [3] was 1.11 µM and the TGI [3] was 2.37 µM. It also gave a GI50 [4] of 1.22 µM, a TGI [4] of 2.87 µM and a GI50 [5] of 1.77 µM. The TGI [5] was 3.33 µM, the GI50 [6] was 0.977 µM and the TGI [6] was 5.63 µM. For the same compound, the GI50 [7] was 19 µM, the TGI [7] was 33.7 µM and the GI50 [8] was 0.393 µM. The TGI [8] was 1.97 µM, the GI50 [9] was 7.27 µM and the TGI [9] was 22.5 µM. The GI50 [10] was 1.3 µM, the TGI [10] was 3.61 µM and the GI50 [11] was 1.89 µM. It also gave a TGI [11] of 3.44 µM, a GI50 [12] of 5.26 µM and a TGI [12] of 13.4 µM. For the same compound, the GI50 [13] was 14.5 µM, the TGI [13] was 29.2 µM and the GI50 [14] was 1.28 µM. It also gave a TGI [14] of 2.85 µM, a GI50 [15] of 1.75 µM and a TGI [15] of 3.38 µM. For the same compound, the GI50 [16] was 0.492 µM, the TGI [16] was 2.18 µM and the GI50 [17] was 1.51 µM. The TGI [17] was 3.05 µM, the GI50 [18] was 0.0757 µM and the TGI [18] was 3.55 µM. It also gave a GI50 [19] of 0.274 µM, a TGI [19] of 1.74 µM and a GI50 [20] of 5.09 µM. For the same compound, the TGI [20] was 10.3 µM, the GI50 [21] was 2.01 µM and the TGI [21] was 5.72 µM. It also gave a GI50 [22] of 1.66 µM, a TGI [22] of 4.53 µM and a GI50 [23] of 0.145 µM. For the same compound, the TGI [23] was 1.66 µM, the GI50 [24] was 4.2 µM and the TGI [24] was 12.5 µM. The GI50 [25] was 4.34 µM, the TGI [25] was 9.28 µM and the GI50 [26] was 1.12 µM. For the same compound, the TGI [26] was 2.64 µM, the GI50 [27] was 1.42 µM and the TGI [27] was 2.82 µM. It also gave a GI50 [28] of 18.4 µM, a TGI [28] of 33.7 µM and a GI50 [29] of 0.0576 µM. For the same compound, the TGI [29] was 0.793 µM, the GI50 [30] was 0.452 µM and the TGI [30] was 2.56 µM. For the same compound, the GI50 [31] was 1.05 µM, the TGI [31] was 2.78 µM and the GI50 [32] was 1.24 µM. It also gave a TGI [32] of 3.18 µM, a GI50 [33] of 1.09 µM and a TGI [33] of 3.61 µM. It also gave a GI50 [34] of 1.33 µM, a TGI [34] of 3.13 µM and a GI50 [35] of 1.32 µM. For the same compound, the TGI [35] was 2.78 µM, the GI50 [36] was 1.48 µM and the TGI [36] was 3.19 µM. The GI50 [37] was 1.29 µM, the TGI [37] was 3.19 µM and the GI50 [38] was 5.54 µM. The TGI [38] was 26.1 µM, the GI50 [39] was 1.79 µM and the TGI [39] was 6.62 µM. For the same compound, the GI50 [40] was 1.48 µM, the TGI [40] was 3.5 µM and the GI50 [41] was 0.36 µM. For the same compound, the TGI [41] was 0.884 µM, the GI50 [42] was 1.59 µM and the TGI [42] was 3.05 µM. The GI50 [43] was 1.96 µM, the TGI [43] was 4.14 µM and the GI50 [44] was 0.838 µM. The TGI [44] was 2.87 µM, the GI50 [45] was 0.525 µM and the TGI [45] was 1.52 µM. The GI50 [46] was 6.32 µM, the TGI [46] was 15.8 µM and the GI50 [47] was 0.873 µM. The TGI [47] was 2.36 µM, the GI50 [48] was 0.0267 µM and the TGI [48] was 1.91 µM. For the same compound, the GI50 [49] was 0.109 µM, the TGI [49] was 1.87 µM and the GI50 [50] was 16.3 µM. The TGI [50] was 34.2 µM, the GI50 [51] was 1.21 µM and the TGI [51] was 2.56 µM. It also gave a GI50 [52] of 1.04 µM, a TGI [52] of 2.56 µM and a GI50 [53] of 1.54 µM. The TGI [53] was 3.05 µM, the GI50 [54] was 1.34 µM and the TGI [54] was 2.85 µM. For the same compound, the GI50 [55] was 0.581 µM, the TGI [55] was 2.49 µM and the GI50 [56] was 1.35 µM. It also gave a TGI [56] of 2.8 µM, a GI50 [57] of 0.95 µM and a TGI [57] of 2.83 µM. It also gave a GI50 [58] of 0.554 µM and a TGI [58] of 3.22 µM.

With `CCNC(=O)N1CCc2cc(OC)c(OCCc3ccc(OC)c(N)c3)cc2C1c1ccc(C)cc1C` (centres undefined) the GI50 [1] was 0.28 µM, the TGI [1] was 92.8 µM and the GI50 [2] was 0.151 µM. The TGI [2] was > 100 µM, the GI50 [3] was 0.161 µM and the TGI [3] was 31.4 µM. The GI50 [4] was 0.0548 µM, the TGI [4] was > 100 µM and the GI50 [5] was 1.47 µM. For the same compound, the TGI [5] was > 100 µM, the GI50 [6] was 0.533 µM and the TGI [6] was > 90 µM. For the same compound, the GI50 [7] was 2.14 µM, the TGI [7] was > 100 µM and the GI50 [8] was 0.226 µM. For the same compound, the TGI [8] was > 46.4 µM, the GI50 [9] was 0.349 µM and the TGI [9] was 3.46 µM. It also gave a GI50 [10] of 0.105 µM, a TGI [10] of 34.3 µM and a GI50 [11] of 0.538 µM. For the same compound, the TGI [11] was > 100 µM, the GI50 [12] was 4.81 µM and the TGI [12] was 56.7 µM. It also gave a GI50 [13] of 2.78 µM, a GI50 [14] of 0.261 µM and a TGI [14] of 1.77 µM. It also gave a GI50 [15] of 0.283 µM, a TGI [15] of 23.3 µM and a GI50 [16] of 0.0899 µM. For the same compound, the TGI [16] was 1.6 µM, the GI50 [17] was 0.15 µM and the TGI [17] was 22.2 µM. The GI50 [18] was 0.0586 µM, the TGI [18] was > 76.6 µM and the GI50 [19] was 0.164 µM. For the same compound, the TGI [19] was 11.1 µM, the GI50 [20] was 0.106 µM and the TGI [20] was 1.7 µM. It also gave a GI50 [21] of 0.493 µM, a TGI [21] of 65.9 µM and a GI50 [22] of 0.238 µM. The TGI [22] was > 95 µM, the GI50 [23] was 0.0309 µM and the TGI [23] was 1.89 µM. It also gave a GI50 [24] of 0.105 µM, a TGI [24] of 2.75 µM and a GI50 [25] of 0.624 µM. For the same compound, the TGI [25] was 76.1 µM, the GI50 [26] was 0.184 µM and the TGI [26] was 4.27 µM. It also gave a GI50 [27] of 0.344 µM, a TGI [27] of 23.3 µM and a GI50 [28] of 0.996 µM. It also gave a TGI [28] of 14.4 µM, a GI50 [29] of 0.027 µM and a TGI [29] of 6.24 µM. For the same compound, the GI50 [30] was 0.106 µM, the TGI [30] was > 100 µM and the GI50 [31] was 0.0311 µM. For the same compound, the TGI [31] was 25.8 µM, the GI50 [32] was 0.191 µM and the TGI [32] was > 100 µM. For the same compound, the GI50 [33] was 0.229 µM, the TGI [33] was 2.46 µM and the GI50 [34] was < 0.0263 µM. The TGI [34] was > 100 µM, the GI50 [35] was 0.134 µM and the TGI [35] was > 56.3 µM. For the same compound, the GI50 [36] was 0.294 µM, the TGI [36] was 22.2 µM and the GI50 [38] was 0.643 µM. It also gave a TGI [38] of 14.6 µM, a GI50 [39] of 0.318 µM and a TGI [39] of 2.82 µM. For the same compound, the GI50 [40] was 0.132 µM, the TGI [40] was > 100 µM and the GI50 [41] was 0.0365 µM. For the same compound, the TGI [41] was 1.74 µM, the GI50 [42] was 0.139 µM and the TGI [42] was 0.496 µM. The GI50 [43] was 1.51 µM, the TGI [43] was > 100 µM and the GI50 [44] was 0.0743 µM. It also gave a TGI [44] of 24.6 µM, a GI50 [45] of 0.1 µM and a TGI [45] of 1.82 µM. It also gave a GI50 [46] of 0.273 µM, a TGI [46] of 23.8 µM and a GI50 [47] of 0.121 µM. The TGI [47] was > 60.4 µM, the GI50 [48] was 0.0384 µM and the TGI [48] was > 100 µM. The GI50 [49] was 0.0634 µM, the TGI [49] was > 83.5 µM and the GI50 [50] was 0.533 µM. The TGI [50] was > 82 µM, the GI50 [51] was 0.0771 µM and the TGI [51] was 1.74 µM. The GI50 [52] was 0.208 µM, the TGI [52] was > 40.8 µM and the GI50 [53] was 0.165 µM. The TGI [53] was 92 µM, the GI50 [54] was 0.234 µM and the TGI [54] was 5.01 µM. The GI50 [55] was 0.0984 µM, the TGI [55] was 0.44 µM and the GI50 [56] was 0.205 µM. The TGI [56] was 15.2 µM, the GI50 [57] was 0.278 µM and the TGI [57] was > 95.3 µM. For the same compound, the GI50 [58] was 0.0291 µM and the TGI [58] was > 100 µM.
